Experimental data: patent US9845322B2 (Hoffmann-La Roche Inc., priority 2016, dated 2017)

Test system: HBsAg secretion in HepG2.2.15 cells
Experiment: HBsAg assay (chemiluminescence immunoassay of secreted HBsAg in culture supernatant)
Type: cell-based, HBV
Details: HepG2.2.15 cells; concentration at which HBsAg secretion was reduced by 50% compared to the no drug control; read-out: IC50 (HBsAg assay)
Experimental: HepG2.2.15 cells (Acs et al. Proc Natl Acad Sci USA, 84, (1987), 4641-4), a constitutively HBV-expressing cell line were cultured in DMEM+Glutamax-I medium (Invitrogen, Carlsbad, Calif., USA), supplemented with 10% fetal bovine serum (Invitrogen) and G418 (Invitrogen) at a final concentration of 200 mg/L and maintained in 5% CO2 at 37° C.
HepG2.2.15 cells were seeded in duplicate into white, 96-well plates at 1.5×10^4 cells/well. The cells were treated with a three-fold serial dilution series of the compounds in DMSO. The final DMSO concentration in all wells was 1% and DMSO was used as no drug control.
The HBsAg chemiluminescence immunoassay (CLIA) kit (Autobio Diagnostics Co., Zhengzhou, China, Catalog number: CL0310-2) was used to measure the levels of secreted HBV antigens semi-quantitatively. For the detection 50 μL/well culture supernatant was used and HBsAg was quantified using HBsAg chemiluminescence immunoassay (CLIA) kit (Autobio Diagnostics Co., Zhengzhou, China, Catalog number: CL0310-2), 50 μL of the supernatant was transferred to the CLIA assay plate and 50 μL of enzyme conjugate reagent was added into each well. The plates were sealed and gently agitated for 1 hour at room temperature. The supernatant-enzyme-mixture was discarded and wells were washed 6 times with 300 μL of PBS. The residual liquid was removed by plating the CLIA plate […] on absorbent tissue paper. 25 μL of substrates A and B were added to each well. Luminance was measured using a luminometer (Mithras LB 940 Multimode Microplate Reader) after 10 minutes incubation. Dose-response curves were generated and the IC50 value was extrapolated by using the E-WorkBook Suite (ID Business Solutions Ltd., Guildford, UK). The IC50 was defined as the compound concentration (or conditioned media log dilution) at which HBsAg secretion was reduced by 50% compared to the no drug control.
The compounds according to formula I were tested for their capacity to inhibit HBsAg as described herein.

Point of comparison: `COc1cc(N2CCc3nc(-c4ncccn4)ncc3C2C)cc(F)c1F` (stereo not drawn) [Example 15, 6-(3,4-difluoro-5-methoxy-phenyl)-5-methyl-2-pyrimidin-2-yl-7,8-dihydro-5H-pyrido[4,3-d]pyrimidine], IC50 15 nM. Against it:
- CC1c2cnc(-c3ncccn3)nc2CCN1c1cc(F)c(F)c(OCC(N)=O)c1 (single isomer, unassigned; (+)) [Example 67, (+)-2-[2,3-difluoro-5-[5-methyl-2-pyrimidin-2-yl-7,8-dihydro-5H-pyrido[4,3-d]pyrimidin-6-yl]phenoxy]acetamide] — 2200-fold higher, 32300 nM
- CC1c2cnc(-c3ncccn3)nc2CCN1c1cc(F)cc(N(C)C)n1 (stereo not drawn) [Example 197, 4-fluoro-N,N-dimethyl-6-(5-methyl-2-pyrimidin-2-yl-7,8-dihydro-5H-pyrido[4,3-d]pyrimidin-6-yl)pyridin-2-amine] — 2.5-fold lower, 6 nM
- COc1cc(N2CCc3nc(-c4ccccn4)ncc3C2C)cc(F)c1F (stereo not drawn) [Example 5, 6-(3,4-difluoro-5-methoxy-phenyl)-5-methyl-2-(2-pyridyl)-7,8-dihydro-5H-pyrido[4,3-d]pyrimidine] — 2.5-fold higher, 38 nM
- COCCOc1cc(N2CCc3nc(-c4ccccn4)ncc3C2C)cc(F)c1F (single isomer, unassigned; (-)) [Example 21, (−)-6-[3,4-difluoro-5-(2-methoxyethoxy)phenyl]-5-methyl-2-(2-pyridyl)-7,8-dihydro-5H-pyrido[4,3-d]pyrimidine] — 3.3-fold higher, 50 nM
- CC1c2cnc(-c3ncccn3)nc2CCN1c1cc(F)c(F)c(OCC(N)=O)c1 (single isomer, unassigned; (-)) [Example 68, (−)-2-[2,3-difluoro-5-[5-methyl-2-pyrimidin-2-yl-7,8-dihydro-5H-pyrido[4,3-d]pyrimidin-6-yl]phenoxy]acetamide] — 4.9-fold higher, 74 nM
- COc1cc(N2CCc3nc(-c4ncccn4)ncc3C2C)cc(Cl)c1F (stereo not drawn) [Example 41, 6-(3-chloro-4-fluoro-5-methoxy-phenyl)-5-methyl-2-pyrimidin-2-yl-7,8-dihydro-5H-pyrido[4,3-d]pyrimidine] — 2.5-fold higher, 38 nM
- CC1c2cnc(-c3ccccn3)nc2CCN1c1ccc([N+](=O)[O-])cc1 (single isomer, unassigned; (+)) [Example 2, (+)-5-methyl-6-(4-nitrophenyl)-2-(2-pyridyl)-7,8-dihydro-5H-pyrido[4,3-d]pyrimidine] — 140-fold higher, 2060 nM

Same assay, conditions: Hepatitis B virus, HepG2.2.15, HepG2.2.15 cells; concentration at which HBsAg secretion was reduced by 50% compared to the no drug control; read-out: IC50 (HBsAg assay)

Point of comparison: `CC1c2cnc(-c3ccccn3)nc2CCN1c1ccc(S(C)(=O)=O)cc1` (stereo not drawn) [Example 23, 5-methyl-6-(4-methylsulfonylphenyl)-2-(2-pyridyl)-7,8-dihydro-5H-pyrido[4,3-d]pyrimidine], IC50 1490 nM. Against it:
- CC1c2cnc(-c3ccccn3)nc2CCN1c1cc(F)cc(N2CCCCC2)n1 (stereo not drawn) [Example 219, 6-[4-fluoro-6-(1-piperidyl)-2-pyridyl]-5-methyl-2-(2-pyridyl)-7,8-dihydro-5H-pyrido[4,3-d]pyrimidine] — 14-fold lower, 110 nM
- Cc1cc(N(C)C)nc(N2CCc3nc(-c4ncccn4)ncc3[C@H]2C)n1 [Example 213, (−)-N,N,6-trimethyl-2-[5-methyl-2-pyrimidin-2-yl-7,8-dihydro-5H-pyrido[4,3-d]pyrimidin-6-yl]pyrimidin-4-amine] — 23-fold lower, 65 nM
- COc1cc(N2CCc3nc(-c4ccccn4)ncc3C2C2CC2)cc(F)c1F (stereo not drawn) [Example 18] — 4.1-fold lower, 363 nM
- CC1c2cnc(-c3ncccn3)nc2CCN1c1cc(N2CCNCC2)cc(F)n1 (stereo not drawn) [Example 208, 6-(6-fluoro-4-piperazin-1-yl-2-pyridyl)-5-methyl-2-pyrimidin-2-yl-7,8-dihydro-5H-pyrido[4,3-d]pyrimidine] — 8-fold lower, 186 nM
- CC1c2cnc(-c3ncccn3)nc2CCN1c1cc(F)nc(OCC(F)F)c1 (stereo not drawn) [Example 150, 6-[2-(2,2-difluoroethoxy)-6-fluoro-4-pyridyl]-5-methyl-2-pyrimidin-2-yl-7,8-dihydro-5H-pyrido[4,3-d]pyrimidine] — 30-fold lower, 49 nM
- CC1c2cnc(-c3ncccn3)nc2CCN1c1cc(F)c(F)c(OCC2CN(C(=O)OC(C)(C)C)C2)c1 (stereo not drawn) [Example 132, tert-butyl 3-[[2,3-difluoro-5-(5-methyl-2-pyrimidin-2-yl-7,8-dihydro-5H-pyrido[4,3-d]pyrimidin-6-yl)phenoxy]methyl]azetidine-1-carboxylate] — 50-fold lower, 30 nM
- CC1c2cnc(-c3ccccn3)nc2CCN1c1cc(N2CCCCC2)cc(F)n1 (stereo not drawn) [Example 218, 6-(6-fluoro-4-(piperidin-1-yl)pyridin-2-yl)-5-methyl-2-(pyridin-2-yl)-5,6,7,8-tetrahydropyrido[4,3-d]pyrimidine] — 68-fold lower, 22 nM
- CC1c2cnc(-c3ncccn3)nc2CCN1c1cc(F)c(F)c(OCCCC(=O)O)c1 (stereo not drawn) [Example 50, 4-[2,3-difluoro-5-(5-methyl-2-pyrimidin-2-yl-7,8-dihydro-5H-pyrido[4,3-d]pyrimidin-6-yl)phenoxy]butanoic acid] — within 1.5-fold, 1130 nM
- CC1c2cnc(-c3ncccn3)nc2CCN1c1cc(F)cc(C2CC2)c1 (stereo not drawn) [Example 137, 6-(3-cyclopropyl-5-fluoro-phenyl)-5-methyl-2-pyrimidin-2-yl-7,8-dihydro-5H-pyrido[4,3-d]pyrimidine] — 12-fold lower, 124 nM
- COc1cc(C)nc(N2CCc3nc(-c4ncccn4)ncc3C2C)c1 (stereo not drawn) [Example 161, 6-(4-methoxy-6-methyl-2-pyridyl)-5-methyl-2-pyrimidin-2-yl-7,8-dihydro-5H-pyrido[4,3-d]pyrimidine] — 16-fold lower, 95 nM
- CC1c2cnc(-c3ccccn3)nc2CCN1c1cc(N2CCOCC2)cc(F)n1 (stereo not drawn) [Example 220, 4-[2-fluoro-6-[5-methyl-2-(2-pyridyl)-7,8-dihydro-5H-pyrido[4,3-d]pyrimidin-6-yl]-4-pyridyl]morpholine] — 71-fold lower, 21 nM
- CC(=O)N1CCN(CCCOc2cc(N3CCc4nc(-c5ncccn5)ncc4C3C)cc(F)c2F)CC1 (stereo not drawn) [Example 109, 1-[4-[3-[2,3-difluoro-5-(5-methyl-2-pyrimidin-2-yl-7,8-dihydro-5H-pyrido[4,3-d]pyrimidin-6-yl)phenoxy]propyl]piperazin-1-yl]ethanone] — 19-fold lower, 80 nM
- CC1c2cnc(-c3ccccn3)nc2CCN1c1cc(F)c(F)c(OCCS(C)(=O)=O)c1 (stereo not drawn) [Example 26, 6-[3,4-difluoro-5-(2-methylsulfonylethoxy)phenyl]-5-methyl-2-(2-pyridyl)-7,8-dihydro-5H-pyrido[4,3-d]pyrimidine] — 19-fold lower, 78 nM
- COc1cc(N2CCc3nc(-c4ccccn4)ncc3C2CC(=O)O)cc(F)c1F (stereo not drawn) [Example 37, 2-[6-(3,4-difluoro-5-methoxy-phenyl)-2-(2-pyridyl)-7,8-dihydro-5H-pyrido[4,3-d]pyrimidin-5-yl]acetic acid] — 3.3-fold higher, 4860 nM
- CC1c2cnc(-c3ccccn3)nc2CCN1c1cc(F)cc(OCC(F)F)n1 (stereo not drawn) [Example 193, 6-[6-(2,2-difluoroethoxy)-4-fluoro-2-pyridyl]-5-methyl-2-(2-pyridyl)-7,8-dihydro-5H-pyrido[4,3-d]pyrimidine] — 18-fold lower, 83 nM
- COc1cc(N2CCc3nc(-c4ccccn4)ncc3C2C[N+](=O)[O-])cc(F)c1F (stereo not drawn) [Example 39, 6-(3,4-difluoro-5-methoxy-phenyl)-5-(nitromethyl)-2-(2-pyridyl)-7,8-dihydro-5H-pyrido[4,3-d]pyrimidine] — within 1.5-fold, 1340 nM
- CC1c2cnc(-c3ccccn3)nc2CCN1c1cc(OCCCCCCC(=O)O)cc(F)n1 (stereo not drawn) [Example 179, 7-[[2-fluoro-6-[5-methyl-2-(2-pyridyl)-7,8-dihydro-5H-pyrido[4,3-d]pyrimidin-6-yl]-4-pyridyl]oxy]heptanoic acid] — 51-fold lower, 29 nM
- COc1cc(F)c(Cl)c(N2CCc3nc(-c4ncccn4)ncc3C2C)c1 (single isomer, unassigned; (-)) [Example 130, (−)-6-(2-chloro-3-fluoro-5-methoxy-phenyl)-5-methyl-2-pyrimidin-2-yl-7,8-dihydro-5H-pyrido[4,3-d]pyrimidine] — 2.2-fold lower, 679 nM
- CC1c2cnc(-c3ccccn3)nc2CCN1c1cc(N2CCCC2)cc(F)n1 (stereo not drawn) [Example 224, 6-(6-fluoro-4-pyrrolidin-1-yl-2-pyridyl)-5-methyl-2-(2-pyridyl)-7,8-dihydro-5H-pyrido[4,3-d]pyrimidine] — 110-fold lower, 13 nM
- CC1c2cnc(-c3ncccn3)nc2CCN1c1cc(OCC2CN(S(C)(=O)=O)C2)cc(F)n1 (stereo not drawn) [Example 159, 6-[6-fluoro-4-[(1-methylsulfonylazetidin-3-yl)methoxy]-2-pyridyl]-5-methyl-2-pyrimidin-2-yl-7,8-dihydro-5H-pyrido[4,3-d]pyrimidine] — 27-fold lower, 56 nM
- CC1c2cnc(-c3ccccn3)nc2CCN1c1cc(F)cc(N(C)C)n1 (stereo not drawn) [Example 217, 4-fluoro-N,N-dimethyl-6-[5-methyl-2-(2-pyridyl)-7,8-dihydro-5H-pyrido[4,3-d]pyrimidin-6-yl]pyridin-2-amine] — 53-fold lower, 28 nM
